Measurements from patent US10407447B2, “Pantothenate derivatives for the treatment of neurological disorders” (Retrophin, Inc., priority 2013, dated 2019).

Assays:
[1] = tested on: PANK2 silenced cells (IMR32 Human Neuroblastoma Cells); assay: Neuroblastoma cell assay: CoASH by LC-MS/MS in PANK2 silenced cells; assay type: cell-based; details: 50 μM, treatment repeated after 24 hours, further 24 hours; free CoASH by LC-MS/MS
Experimental: The compounds described herein may be tested in PANK2 silenced cells (IMR32 Human Neuroblastoma Cells). The amount of CoASH following administration of the compounds is measured by LC-MS/MS.
Human neuroblastoma IMR32 cells (ATCC) were cultured in MEM (Invitrogen) supplemented with 10% fetal bovine serum, 2 mM glutamine, 1% penicillin-streptomycin, 1 mM sodium pyruvate, 1 mM non essential aminoacids and 1.5 g/l sodium bicarbonate.
Human Emryonic Kidney HEK-293T cells (ATCC) were cultured in DMEM supplemented with 10% fetal bovine serum, 1 mM glutamine, 1% penicillin-streptomycin.
The cells were maintained at 37° C. under 5% CO2.
Establishment of a PANK2−/− Cell Model
For lentiviral shRNA expression, Human Emryonic Kidney HEK-293T cells (ATCC) were transfected with the appropriate pGFP-Lenti-shRNA constructs and packaging plasmids according to manufacturer's protocol (Origene Technologies, Inc.). 4 different gene-specific shRNA expression vectors designed against multiple splice variants of PANK2 (Gene ID 80025) were used for transfection. A non-silencing shRNA construct (scrambled shRNA) and an empty vector expressing GFP alone were used as negative controls. The GFP tag subcloned into the lentiviral vectors was used to monitor the transfection efficiency.
IMR32 cells were plated on […] dishes 48 hrs before transduction with lentiviral particles.
Three days after transduction medium was removed and replaced with fresh medium containing […] puromycin. Medium was replaced every 48 hrs. Levels of PANK2 expression on selected clones was assessed by Western Blot analysis.
Cell-Based Assay on PANK2−/− Cells
Cells were plated on 6-well culture plates. After 72 hours, compounds were diluted in DMSO and added to the culture medium such that the final solvent concentration was 0.1% (v/v). […] Before analysis of Coenzyme A levels, cells were harvested, counted and collected in a 15 ml falcon tube and centrifuged at 200×g for 5 min at 4° C. […]
Results are expressed as fold increase in CoA levels (LCMS quantification of free CoASH as described in above).

[2] = tested on: Pank1−/− mice; assay: In vivo testing: liver Coenzyme A levels in Pank1−/− mice; design: species or system mouse; details: liver CoA in treated Pank1−/− mice as percentage of untreated Pank1−/− mice; intraperitoneal 1.2 μmoles/g body weight once daily for 5 days, fasted overnight
Experimental: Compounds of the invention were tested for efficacy in Pank1^−/− mice (strain 129SvJ×C57BL/6J background), which were compared with age-matched Pank1^+/+ (strain 129SvJ×C57BL/6J) littermates, ages 8-12 weeks. Each mouse was identified with a coded ear tag and weighed on the first day of testing. Each compound was administered to 4-5 mice by intraperitoneal injection at a dose of 1.2 μmoles/g body weight in 5 μL dimethylsulfoxide once daily for 5 days, and mice were then fasted overnight, weighed, and euthanized. Untreated mice received 5 μL dimethylsulfoxide once daily for 5 days and then were fasted overnight prior to weighing and euthanasia. Livers were excised from each mouse, aliquots were snap-frozen in liquid nitrogen, and stored at −80° C. Within 7 days, liver samples were thawed on ice, weighed, and analyzed for Coenzyme A content as described below. Efficacy was indicated by a statistically significant increase in the liver Coenzyme A levels in the Pank1^−/− mice as compared to the liver from untreated Pank1^−/− mice and by equivalence in comparison with Coenzyme A levels in untreated Pank1^+/+ mice.
CoA Measurements: Extraction of Fibroblasts and Liver and Derivatization of Coenzyme A Prior to High Pressure Liquid Chromatography (HPLC) […]
Coenzyme A Quantification by HPLC […]

COC(=O)[C@H](C)NP(=O)(OCC(C)(C)[C@@H](O)C(=O)NCCC(=O)OCc1ccccc1)Oc1ccccc1 (stereo partly drawn) [Compound 22, Benzyl 3-((2R)-2-hydroxy-4-(((((S)-1-methoxy-1-oxopropan-2-yl)amino)(phenoxy)phosphoryl)oxy)-3,3-dimethylbutanamido)propanoate]
CoA levels (fold over vehicle treated PANK2−/− cells) [1]: 1.1 fold | CoA (% KO) [2]: 400 % KO

COC(=O)CCNC(=O)[C@H](O)C(C)(C)COP(=O)(N[C@@H](C)C(=O)OCc1ccccc1)Oc1ccccc1 (stereo partly drawn) [Compound 24, Benzyl (((R)-3-hydroxy-4-((3-methoxy-3-oxopropyl)amino)-2,2-dimethyl-4-oxobutoxy)(phenoxy)phosphoryl)-L-alaninate]
CoA levels (fold over vehicle treated PANK2−/− cells) [1]: 1.7 fold

COC(=O)CCNC(=O)[C@H](O)C(C)(C)COP(=O)(N[C@@H](Cc1ccccc1)C(=O)OCc1ccccc1)Oc1ccccc1 (stereo partly drawn) [Compound 27, Benzyl (((R)-3-hydroxy-4-((3-methoxy-3-oxopropyl)amino)-2,2-dimethyl-4-oxobutoxy)(phenoxy)phosphoryl)-L-phenylalaninate]
CoA levels (fold over vehicle treated PANK2−/− cells) [1]: 1.3 fold | CoA (% KO) [2]: 1837 % KO
